From patent US10653658B2, “Biofilm inhibiting compositions enhancing weight gain in livestock” (Akeso Biomedical, Inc., priority 2015, dated 2020)
Marks after values point to notes of the source that are not given here.

How the values were obtained:
[1] = Dose ranging study of FeTyr (TYPLEX) in feed, zootechnical performance of broilers, dirty litter challenge at day 20 (Example 10); type: in vivo, Ross 308 male broilers; conditions: for AFI / AWG / MFCR / AFI/bird/period / AWG/bird/period: 0.22 g Q-PLEX/kg feed
Method: A study was performed to evaluate growth promotion and reduction of Campylobacter carriage using FeTyr in Ross 308 male broilers with 7 treatment groups. Each treatment group comprised eight replicates of 10 birds per pen (80 birds/treatment group), with 2 control groups and […]. All the test groups and both of the control groups were exposed at day 20 of the trial to dirty litter, which tested positive for Campylobacter. This method was used to provide a more natural method to Campylobacter challenge the birds. Thus there were two positive controls where each treatment group was challenged with Campylobacter, and five treatment groups that were all challenged with Campylobacter. The total number of birds used in the 7 treatment groups was 560.
Treatment group 1 was a positive control where birds just received the commercial feed, and were challenged with dirty litter containing Campylobacter at day 20. Treatment group 2 received 0.01 g/kg of TYPLEX (FeTyr) in their feed, and were challenged with dirty litter containing Campylobacter at day 20. Treatment group 3 received 0.02 g/kg of TYPLEX (FeTyr) in their feed, and was challenged with dirty litter containing Campylobacter at day 20. Treatment group 4 received 0.05 g/kg of TYPLEX (FeTyr) in their feed, and was challenged with dirty litter containing Campylobacter at day 20. Treatment group 5 received 0.1 g/kg of TYPLEX (FeTyr) in their feed, and was challenged with dirty litter containing Campylobacter at day 20. Treatment group 6 received 0.2 g/kg of TYPLEX (FeTyr) in their feed, and was challenged with dirty litter containing Campylobacter at day 20. […] The birds were fed with a commercial three-phase feeding program using starter, grower and finisher feeds as described in Example 1. The birds were reared in floor pens to day 42, and fed starter, grower and finisher feed at day 0 to 11, 11 to 24, and 24 to 42 days, respectively. All birds were weighed individually and feed weigh backs recorded per pen at day 0, 11, 21, 24 and 42 days.
At day 20, litter, which was naturally Campylobacter-contaminated, was tested to confirm the presence of Campylobacter, and then added (approximately 2 kg/pen) to the litter in all pens. At day 42, caecal samples were taken and tested for Campylobacter, E. coli and Salmonella enumeration.
In order to minimize risk of cross-contamination, standard industry biosecurity measures were used including: disinfecting boots, changing overshoes and gloves between pens/treatments, entering Campylobacter negative pens before entering Campylobacter positive pens, and leaving adjacent pens empty. Daily health, culls, and mortality were recorded. All bird weights were recorded at 0, 11, 21, 24, 33 and 42 days. Weight gains, feed intake and feed conversion ratio (FCR) were derived for each feeding period.

[2] = test system: Campylobacter jejuni NCTC 11168; assay: Biofilm formation on plastic coated UV beads (Example 6); conditions: Fe-Tart and Fe-Cit at 50, 100, and 300 μM; FeQ (QPLEX) at 300

## O=C([O-])C1(O)CC(O)C(O)C(O)C1.O=C([O-])C1(O)CC(O)C(O)C(O)C1.O=C([O-])C1(O)CC(O)C(O)C(O)C1.[Fe+3] (centres unmarked) [FeQ, Ferric Quinate]
[1]; 0-25 d of age
  AFI: 1.898 kg
  AWG: 1.422^c kg
  MFCR: 1.335^a feed:gain
[1]; 0-35 d of age
  AFI/bird/period: 3.815 kg
  AWG/bird/period: 0.668 kg
  MFCR: 1.458^a feed:gain
[1]; 0-42 d of age
  AFI/bird/period: 5.279 kg
  AWG/bird/period: 3.448^ab kg
  MFCR: 1.547^a feed:gain
[1]; 35 to 42 d of age
  AFI: 1.464 kg
  AWG: 0.790 kg
  MFCR: 1.864 feed:gain
[1]; T7 0.22 g Q-PLEX/kg feed
  ABW (average body weight/pen) 1 d: 0.040 kg
  ABW (average body weight/pen) 11 d: 0.350^b kg
  ABW (average body weight/pen) 20 d: 0.968 kg
  ABW (average body weight/pen) 25 d: 1.463^c kg
  ABW (average body weight/pen) 28 d: 1.836^b kg
  ABW (average body weight/pen) 30 d: 2.031^b kg
  ABW (average body weight/pen) 35 d: 2.698^ab kg
  ABW (average body weight/pen) 42 d: 3.488^ab kg
  AFI (mean feed intake/pen) 1 to 11 d: 0.357^b kg
  AFI (mean feed intake/pen) 11 to 20 d: 0.836^ab kg
  AFI (mean feed intake/pen) 11 to 25 d: 1.541 kg
  AFI (mean feed intake/pen) 20 to 35 d: 2.622 kg
  AFI (mean feed intake/pen) 25-42 d: 3.381 kg
  AFI/bird/period 20-25 d: 0.705 kg
  AFI/bird/period 25-35 d: 1.917 kg
  AWG (mean weight gain/pen) 1 to 11 d: 0.310^b kg
  AWG (mean weight gain/pen) 11 to 20 d: 0.618 kg
  AWG (mean weight gain/pen) 11 to 25 d: 1.113^b kg
  AWG (mean weight gain/pen) 20 to 35 d: 1.730^ab kg
  AWG (mean weight gain/pen) 25-42 d: 2.026^ab kg
  AWG/bird/period 20-25 d: 0.495 kg
  AWG/bird/period 25-35 d: 1.236^abc kg
  MFCR 1 to 11 d: 1.150^x feed:gain
  MFCR 11 to 20 d: 1.357^ab feed:gain
  MFCR 11 to 25 d: 1.387^a feed:gain
  MFCR 20-25 d: 1.430^a feed:gain
  MFCR 20 to 35 d: 1.554^a feed:gain
  MFCR 25-35 d: 1.607^ab feed:gain
  MFCR 25-42 d: 1.703^ab feed:gain
[1]; all treatment groups, in feed
  MFCR at day 42 compared to control group (FIG. 13): improved MFCR values
  average body weight at day 42 compared with control group (FIG. 12): higher average body weight
[2]
  C. jejuni biofilm formation on plastic coated UV beads (FIG. 9): inhibited C. jejuni biofilm formation
